These results are taken from US20110039825A1, “LIGANDS OF ALPHA-ADRENOCEPTORS, DOPAMINE, HISTAMINE, IMIDAZOLINE AND SEROTONIN RECEPTORS AND THEIR USE” (Alla Chem, LLC, priority 2007, published 2011).

One assay deals with T1, human α1D receptor (Homo sapiens, UniProt P25100).
T1 construct: expressed in transfected cells; host or cells: HEK-293
T1 sequence (P25100 1-572): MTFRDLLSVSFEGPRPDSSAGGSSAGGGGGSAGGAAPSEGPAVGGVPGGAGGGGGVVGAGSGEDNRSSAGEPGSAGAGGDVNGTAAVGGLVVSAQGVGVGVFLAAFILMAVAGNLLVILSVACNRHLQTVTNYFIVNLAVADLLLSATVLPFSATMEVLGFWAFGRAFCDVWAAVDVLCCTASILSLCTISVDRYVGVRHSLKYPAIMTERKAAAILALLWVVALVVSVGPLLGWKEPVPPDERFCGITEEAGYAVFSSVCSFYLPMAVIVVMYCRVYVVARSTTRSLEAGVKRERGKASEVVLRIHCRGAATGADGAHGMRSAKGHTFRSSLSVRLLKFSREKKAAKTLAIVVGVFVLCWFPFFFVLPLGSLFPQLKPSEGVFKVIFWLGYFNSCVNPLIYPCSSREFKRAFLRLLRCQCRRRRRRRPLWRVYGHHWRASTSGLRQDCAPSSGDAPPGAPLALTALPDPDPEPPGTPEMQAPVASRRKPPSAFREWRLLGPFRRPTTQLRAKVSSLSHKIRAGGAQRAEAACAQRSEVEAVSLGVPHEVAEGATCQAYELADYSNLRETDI
The assay is described as follows: radioligand binding to adrenergic receptor α1D ([3H] Prazosin). The source says:
6-C. […] For this purpose sDNA of human α1D receptor is expressed in HEK-293 cells, as it was described in [T L Theroux, T A Esbenshade, R D Peavy and K P Minneman. Coupling efficiencies of human alpha 1-adrenergic receptor subtypes: titration of receptor density and responsiveness with inducible and repressible expression vectors. Mol. Pharmacol.; 50: 1376-1387, 1996]. […] Prazosin is used as positive control.

The target of a further assay is T2, adrenergic receptor α1B (Rattus norvegicus, UniProt P15823).
T2 construct: membrane species from rat liver (rat of Wistar breed) are prepared; from tissue; host or cells: rat (Wistar) liver membranes
T2 sequence (P15823 1-515): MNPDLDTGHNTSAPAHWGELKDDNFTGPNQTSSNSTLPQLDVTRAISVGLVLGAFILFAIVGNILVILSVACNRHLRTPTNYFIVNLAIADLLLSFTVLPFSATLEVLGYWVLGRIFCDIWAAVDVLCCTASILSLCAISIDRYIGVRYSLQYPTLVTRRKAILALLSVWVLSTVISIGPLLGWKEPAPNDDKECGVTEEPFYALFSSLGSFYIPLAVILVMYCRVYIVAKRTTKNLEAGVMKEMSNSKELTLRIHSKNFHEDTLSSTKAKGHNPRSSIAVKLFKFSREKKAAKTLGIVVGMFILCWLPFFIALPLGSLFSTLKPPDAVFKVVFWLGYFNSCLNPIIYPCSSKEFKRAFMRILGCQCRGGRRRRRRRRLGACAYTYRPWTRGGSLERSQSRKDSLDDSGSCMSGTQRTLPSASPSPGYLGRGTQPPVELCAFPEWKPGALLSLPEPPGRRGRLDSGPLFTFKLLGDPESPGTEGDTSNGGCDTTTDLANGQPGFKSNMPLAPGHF
The experiment in a line: radioligand binding to adrenergic receptor α1B ([3H] Prazosin). The source says: Species heterogeneity of hepatic α1A-, α1B-, and α1C-subtypes. Biochem Biophys Res Commun. 186:760-7676 1992]. […] Prazosin is used as positive control.

In the next assay the target is T3, adrenergic receptor α1A (Rattus norvegicus, UniProt P43140).
T3 construct: membrane species from rat submaxillary glands (rat of Wistar breed) are prepared; from tissue; host or cells: rat (Wistar) submaxillary gland membranes
T3 sequence (P43140 1-466): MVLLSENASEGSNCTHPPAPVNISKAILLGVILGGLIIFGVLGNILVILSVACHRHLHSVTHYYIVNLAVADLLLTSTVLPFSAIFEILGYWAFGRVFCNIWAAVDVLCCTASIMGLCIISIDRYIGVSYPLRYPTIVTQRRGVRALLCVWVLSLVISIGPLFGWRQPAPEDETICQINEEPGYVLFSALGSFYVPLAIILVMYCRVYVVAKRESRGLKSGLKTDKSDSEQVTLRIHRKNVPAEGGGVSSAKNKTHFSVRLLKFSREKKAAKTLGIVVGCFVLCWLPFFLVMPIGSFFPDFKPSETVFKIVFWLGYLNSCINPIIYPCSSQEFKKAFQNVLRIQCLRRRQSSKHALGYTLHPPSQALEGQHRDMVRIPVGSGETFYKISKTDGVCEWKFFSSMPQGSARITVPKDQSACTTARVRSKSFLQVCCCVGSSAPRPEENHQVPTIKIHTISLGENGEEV
The experiment in a line: radioligand binding to adrenergic receptor α1A ([3H] Prazosin). The method, then: Determination of investigated compounds' binding to α1A receptor was carried out according to the method described in [Michel A D, Loury D N and Whiting R l. Identification of a single α1A-adrenoceptor corresponding to the α1A-subtype in rat submaxillary gland. Br J. Pharmacol. 98:883-889, 1989]. […] Prazosin is used as positive control.

A further assay has as its target T4, human α2A receptor (Homo sapiens, UniProt P08913).
T4 construct: expressed in transfected cells; host or cells: Sf9
T4 sequence (P08913 1-465): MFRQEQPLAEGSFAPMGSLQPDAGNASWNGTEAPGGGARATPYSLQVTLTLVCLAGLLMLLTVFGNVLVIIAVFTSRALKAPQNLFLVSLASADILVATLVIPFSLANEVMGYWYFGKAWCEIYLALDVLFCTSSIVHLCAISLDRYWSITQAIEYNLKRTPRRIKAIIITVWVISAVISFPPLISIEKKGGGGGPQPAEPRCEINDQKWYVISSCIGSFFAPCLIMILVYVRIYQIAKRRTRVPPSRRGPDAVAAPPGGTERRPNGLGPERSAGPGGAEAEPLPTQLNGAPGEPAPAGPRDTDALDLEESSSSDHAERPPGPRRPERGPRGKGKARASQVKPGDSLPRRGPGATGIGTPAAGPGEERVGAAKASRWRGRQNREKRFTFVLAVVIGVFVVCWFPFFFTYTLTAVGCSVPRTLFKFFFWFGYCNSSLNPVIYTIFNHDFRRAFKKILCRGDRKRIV
The experiment in a line: radioligand binding to adrenergic receptor α2A ([3H] MK-912). The source says:
J Pharmacol ExpTher. […] Yohimbine is used as positive control.

The test system of the next assay is imidazoline receptor I2. The experiment in a line: radioligand binding to imidazoline receptor I2 ([3H] Idazoxan). Also noted: species or system rat. Conditions: 10 μM ligand. The protocol: Determination of investigated compounds' binding to imidazoline I2 receptor is carried out according to the method described in [Brown C M, MacKinnon A C, McGrath J C, Spedding M and Kilpatrick A T, a2-Adrenoceptor subtypes and imidazoline-like binding in the rat brain. Br J. Pharmacol. 99:803-809, 1990]. […] Idazoxan is used as positive control.

In a further assay the target is T5, human 5-HT7 receptor (Homo sapiens, UniProt P34969).
T5 construct: expressed in transfected cells; host or cells: CHO
T5 sequence (P34969 whole entry): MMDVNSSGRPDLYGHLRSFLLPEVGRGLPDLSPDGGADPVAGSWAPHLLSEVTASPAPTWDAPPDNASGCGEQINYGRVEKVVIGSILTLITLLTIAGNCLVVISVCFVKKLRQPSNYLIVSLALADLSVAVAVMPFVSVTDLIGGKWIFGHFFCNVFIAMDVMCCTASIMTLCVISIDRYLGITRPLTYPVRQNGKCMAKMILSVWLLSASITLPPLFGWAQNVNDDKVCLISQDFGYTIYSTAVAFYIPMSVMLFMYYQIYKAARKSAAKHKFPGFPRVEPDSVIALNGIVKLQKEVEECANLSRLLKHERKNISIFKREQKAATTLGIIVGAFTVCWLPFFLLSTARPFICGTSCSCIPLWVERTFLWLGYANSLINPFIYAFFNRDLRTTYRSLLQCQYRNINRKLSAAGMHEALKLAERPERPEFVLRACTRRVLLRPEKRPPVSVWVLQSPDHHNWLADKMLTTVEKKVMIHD
The experiment in a line: radioligand binding to serotonin receptor 5-HT7 ([3H] Lysergic acid diethylamide). The settings on record: 10 μM ligand. The source says:
For this purpose sDNA of human 5-HT7 receptor is expressed in CHO cells as it was described in [Shen Y, Monsma F J Jr, Metcalf M A, Jose P A, Hamblin M W, and Sibley DR. […] J. Biol. Chem. 1993, 268, 18200-18204]. […] J. Pharmacol. Exp. Ther. 1994, 268:1403-1410]. […] Methiothepin is used as positive control.

A further assay addresses T6, recombinant human 5-HT1A (Homo sapiens, UniProt P08908).
T6 construct: expressed in transfected cells; host or cells: CHO
T6 sequence (P08908 1-422): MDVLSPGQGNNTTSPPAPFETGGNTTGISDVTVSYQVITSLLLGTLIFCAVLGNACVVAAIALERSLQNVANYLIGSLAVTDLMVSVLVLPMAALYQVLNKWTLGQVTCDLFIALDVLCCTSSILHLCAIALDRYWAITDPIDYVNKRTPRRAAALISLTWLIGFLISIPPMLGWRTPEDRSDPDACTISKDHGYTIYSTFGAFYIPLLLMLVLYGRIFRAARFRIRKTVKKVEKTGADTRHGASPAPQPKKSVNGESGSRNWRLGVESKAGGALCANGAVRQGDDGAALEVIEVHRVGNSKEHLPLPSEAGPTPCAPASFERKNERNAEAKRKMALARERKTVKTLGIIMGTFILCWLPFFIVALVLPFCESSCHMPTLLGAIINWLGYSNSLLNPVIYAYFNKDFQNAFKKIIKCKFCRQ
The assay is described as follows: radioligand binding to serotonin receptor 5-HT1A ([3H] 8-OH-DPAT). Conditions: 10 μM ligand. The source says:
J Pharmacol Exp Ther. 306(1): 301-309, 2003]. […] Metergoline is used as positive control.

Assay [1] deals with T7, recombinant human 5-HT6 receptor (Homo sapiens, UniProt P50406).
T7 construct: expressed in transfected cells; host or cells: HeLa
T7 sequence (P50406 whole entry): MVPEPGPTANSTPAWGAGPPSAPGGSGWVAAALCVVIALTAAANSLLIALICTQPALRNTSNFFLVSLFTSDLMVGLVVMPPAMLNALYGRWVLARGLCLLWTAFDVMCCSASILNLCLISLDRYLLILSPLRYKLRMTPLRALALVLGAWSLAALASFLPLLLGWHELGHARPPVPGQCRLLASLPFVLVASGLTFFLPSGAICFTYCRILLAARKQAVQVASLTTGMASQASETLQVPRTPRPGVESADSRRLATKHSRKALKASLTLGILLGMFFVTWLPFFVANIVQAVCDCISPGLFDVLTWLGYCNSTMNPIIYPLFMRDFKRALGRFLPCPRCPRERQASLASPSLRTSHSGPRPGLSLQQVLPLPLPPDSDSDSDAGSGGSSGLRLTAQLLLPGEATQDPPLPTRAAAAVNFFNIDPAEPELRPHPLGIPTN
The experiment in a line: radioligand binding to serotonin receptor 5-HT6 ([3H] Lysergic acid diethylamide). Conditions: 10 μM ligand. The source says:
Mol. Pharmacol. 43:320-327, 1993]. […] Methiothepin is used as positive control.

As a reminder, the IC50 is the concentration at which inhibition is half-maximal. Lower therefore signals greater potency. A word on the Ki: it is a measure of affinity in units of concentration, obtained from inhibition or displacement. Take `Cc1ccc(CCn2c3c(c4cc(C)ccc42)CN(C)CC3)cc1` [1.1.2(1-3), 2,8-dimethyl-5-[2-(4-methylphenyl)-ethyl]-1,2,3,4-tetrahydro-1H-pyrido[4,3-b]indole]: the IC50 on human α1D receptor came to 0.0615 µM; on adrenergic receptor α1B, 0.017 µM; at adrenergic receptor α1A, 0.0467 µM; on human α2A receptor, 0.00472 µM. The Ki at human α1D receptor was found to be 0.0302 µM; on adrenergic receptor α1B, 0.0094 µM; on adrenergic receptor α1A, 0.0189 µM; at human α2A receptor, 0.00177 µM.
As to `Cc1ccc2c(c1)[C@@H]1CN(C)CCC[C@@H]1N2CCc1cccnc1.Cl.Cl.Cl` (relative stereo) [1.6.1(1)•3HCl], in the assay on imidazoline receptor I2, the “imidazoline I2 receptor % inhibition” value came to 80%.
As to `Cc1ccc2c(c1)c1c(n2Cc2ccccc2)CCCN(C)C1.Cl` [1.10(4)•HCl], on human 5-HT7 receptor, the 5-HT7 % inhibition amounted to 75%. The 5-HT1A % inhibition on recombinant human 5-HT1A came out at 19%.
For the compound `COc1ccc(CCn2c3c(c4cc(C)ccc42)CN(C)CC3)cc1.Cl` [1.1.2(1-14)•HCl], on human 5-HT7 receptor, the 5-HT7 % inhibition is listed as 100%. In addition, the 5-HT6 % inhibition in assay [1] was determined as 108%. The 5-HT1A % inhibition at recombinant human 5-HT1A came out at 57%.
`CN1CCc2c(c3cc(F)ccc3n2CCCc2ccccc2)C1.Cl` [1.3.3(8)•HCl] yielded a 5-HT7 % inhibition at human 5-HT7 receptor of 83%. The 5-HT1A % inhibition on recombinant human 5-HT1A is on record as −4%.
Take `CN1CCc2c(c3cc(F)ccc3n2Cc2ccccc2)C1.Cl` [1.9(3)•HCl]: the 5-HT7 % inhibition at human 5-HT7 receptor turned out to be 81%.
For `Cc1ccc2c(c1)c1c(n2CCc2ccc(C)nc2)CCCN(C)C1` [1.2.2(4-1)], the “imidazoline I2 receptor % inhibition” value in the assay on imidazoline receptor I2 was found to be 80%.
